These results are taken from publication PMC12196264, “Design and Synthesis of Pyridine-Based Pyrrolo[2,3-d]pyrimidine Analogs as CSF1R Inhibitors: Molecular Hybridization and Scaffold Hopping Approach” (Pharmaceuticals, 2025).

The subject of data set [1] is Ba/F3 cells engineered to be dependent on CSF1R. As to the kind of experiment: Cell viability assay with Ba/F3-hCSF1R cells. The class given is cell-based. To be noted: for IC50: Mus musculus, BaF3, Ba/F3 cells dependent on CSF1R, with standard deviation, read-out: Cellular Assay IC50 (μM), Ba/F3 CSF1R. As to the method:
(§1) Given the promising enzymatic activity of the synthesized derivatives, cellular assays were performed using Ba/F3 cells engineered to depend on constitutively active CSF1R. […] We have also previously observed a low correlation between enzymatic and cellular activities, which may arise from the enzymatic protein construct not accurately mimicking the active conformation of CSF1R in a cellular context.
(§2) Performed as reported previously.

Data set [2] has as its target CSF1R (Homo sapiens, UniProt P07333). As to the kind of experiment: CSF1R enzymatic inhibitory assay (TR-FRET LANCE Ultra). To be noted: single eight-point titrations, ATP 25 μM, R^2 of fit in parentheses. The class given is biochemical. As to the method:
The TR-FRET-based LANCE Ultra assay (Perkin Elmer, Waltham, MA, USA) was used to determine IC50 values for various CSF1R inhibitors. Kinase activity and inhibition in this assay was measured as previously reported. Scigilian Analyze software version 5.8.5.15 (Scigilian, Montreal, QC, Canada) was used.

Data set [3] is described as follows: Kinetic solubility. The format is physicochemical. Particulars: aqueous buffer, kinetic from dmso stock; spectrophotometric, pH 7.4 in HEPES buffer. As to the method: (§3) The aqueous solubility of the compounds and metabolic stability under oxidative conditions was performed as described previously.
For data set [4], the target named is cKIT (Homo sapiens, UniProt P10721). As to the kind of experiment: KIT-WT LanthaScreen binding assay (Kd). To be noted: single eight-point titrations, TR-FRET LanthaScreen Binding Assay; R^2 of fit in parentheses; read-out: Enzymatic Assay KIT (Kd). As to the method:
The TR-FRET-based LanthaScreen Binding Assay was performed to determine Kd values of synthesized derivatives against cKIT.
Subsequently, 8 µL of kinase anti-GST antibody mixture was added, followed by incubation at 4 °C for 30 min in a pre-cooled, humidified box to minimize edge effects. The reaction was initiated by adding 5 µL of tracer working solution and mixed on a Bioshake 5000 microplate shaker (Q Instruments, Jena, Germany). […] Kd values were calculated from sigmoidal dose-response curves using Scigilian Analyze software version 5.8.5.15 (Scigilian, Montreal, QC, Canada).

A short description of data set [5]: Microsomal stability, mouse liver microsomes. To be noted: mouse liver microsome. The class given is in vitro ADME. The procedure:
as §3

Data set [6] can be described thus: MDCK permeability assay. The class given is in vitro ADME, canine. To be noted: dog, MDCK monolayer; for Papp A→B: A–B direction; for Papp B→A: B–A direction; for efflux ratio: read-out: MDCK Ratio (Papp B–A/A–B). The procedure:
Six selected compounds were assessed for metabolic stability (clearance) in mouse liver microsomes (MLM) and human liver microsomes (HLM), and apparent permeability (Papp) using a MDCK permeability assay. […] Although currently limited by solubility and permeability, its metabolic profile provides a starting point for targeted structural modifications aimed at overcoming these challenges.

Data set [7] relates to Ba/F3 cells engineered to be dependent on CSF1R but added additional IL-3. As to the kind of experiment: Cell viability assay with Ba/F3-hCSF1R cells with added IL-3. The format is cell-based. To be noted: Mus musculus, BaF3; Ba/F3 CSF1R cells with additional IL-3; read-out: Cellular Assay IC50 (μM), Ba/F3 IL-3. The procedure: as §1, §2

≈ marks a conversion by molar mass, not a printed value.

Sequence of CSF1R (P07333 20-972): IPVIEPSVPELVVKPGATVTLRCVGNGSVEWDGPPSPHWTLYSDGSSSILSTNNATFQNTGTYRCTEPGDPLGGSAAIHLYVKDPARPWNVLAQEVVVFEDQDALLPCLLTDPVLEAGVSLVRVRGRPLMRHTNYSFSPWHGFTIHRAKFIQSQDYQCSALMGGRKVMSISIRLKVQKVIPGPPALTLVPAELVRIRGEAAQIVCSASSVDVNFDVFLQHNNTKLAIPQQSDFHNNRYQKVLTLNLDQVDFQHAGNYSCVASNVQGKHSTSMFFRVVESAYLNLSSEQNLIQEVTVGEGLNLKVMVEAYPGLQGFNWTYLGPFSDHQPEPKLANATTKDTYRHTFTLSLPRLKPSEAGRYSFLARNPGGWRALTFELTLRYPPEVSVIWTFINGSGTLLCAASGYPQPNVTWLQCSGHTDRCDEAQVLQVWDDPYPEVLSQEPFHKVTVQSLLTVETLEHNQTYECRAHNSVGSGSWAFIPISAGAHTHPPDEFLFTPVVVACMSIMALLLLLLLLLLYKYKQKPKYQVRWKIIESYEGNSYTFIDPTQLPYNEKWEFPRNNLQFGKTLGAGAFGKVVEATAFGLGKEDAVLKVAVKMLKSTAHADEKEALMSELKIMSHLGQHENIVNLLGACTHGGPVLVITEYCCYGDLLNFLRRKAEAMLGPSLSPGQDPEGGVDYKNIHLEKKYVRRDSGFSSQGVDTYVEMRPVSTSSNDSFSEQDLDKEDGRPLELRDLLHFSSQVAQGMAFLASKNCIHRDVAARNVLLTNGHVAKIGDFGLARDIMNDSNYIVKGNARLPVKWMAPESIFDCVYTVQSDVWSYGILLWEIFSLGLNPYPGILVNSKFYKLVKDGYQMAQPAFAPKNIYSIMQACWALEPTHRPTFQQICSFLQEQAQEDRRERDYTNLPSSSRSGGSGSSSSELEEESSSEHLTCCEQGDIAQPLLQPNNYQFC
Sequence of cKIT (P10721 26-976): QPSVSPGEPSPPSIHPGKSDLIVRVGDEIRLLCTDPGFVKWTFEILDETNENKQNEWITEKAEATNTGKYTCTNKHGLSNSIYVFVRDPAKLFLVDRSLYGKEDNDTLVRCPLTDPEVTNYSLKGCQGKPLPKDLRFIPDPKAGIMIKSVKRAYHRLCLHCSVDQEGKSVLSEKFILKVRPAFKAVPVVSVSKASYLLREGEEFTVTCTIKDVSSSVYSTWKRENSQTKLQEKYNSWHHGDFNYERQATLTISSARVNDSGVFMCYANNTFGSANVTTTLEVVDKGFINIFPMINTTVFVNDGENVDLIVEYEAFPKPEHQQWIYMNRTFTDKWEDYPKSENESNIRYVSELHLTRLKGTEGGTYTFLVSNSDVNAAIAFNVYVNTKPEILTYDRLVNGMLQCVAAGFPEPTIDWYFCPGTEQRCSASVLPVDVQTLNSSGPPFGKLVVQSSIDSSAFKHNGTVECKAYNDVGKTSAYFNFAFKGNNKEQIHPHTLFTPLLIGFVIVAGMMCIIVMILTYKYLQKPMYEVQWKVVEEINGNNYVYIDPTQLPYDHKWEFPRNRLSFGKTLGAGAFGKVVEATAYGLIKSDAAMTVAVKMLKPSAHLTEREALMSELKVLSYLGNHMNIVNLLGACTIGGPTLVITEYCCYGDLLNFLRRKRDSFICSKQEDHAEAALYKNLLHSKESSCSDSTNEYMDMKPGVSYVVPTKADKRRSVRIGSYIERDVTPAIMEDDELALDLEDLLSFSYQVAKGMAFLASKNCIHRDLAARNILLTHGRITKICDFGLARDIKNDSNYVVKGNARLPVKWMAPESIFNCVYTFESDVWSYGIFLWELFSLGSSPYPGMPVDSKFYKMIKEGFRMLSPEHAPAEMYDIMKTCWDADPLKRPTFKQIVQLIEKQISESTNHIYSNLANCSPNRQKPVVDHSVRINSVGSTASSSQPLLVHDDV

For `CN(Cc1ccc(NCc2ccccc2)nc1)c1ncnc2[nH]ccc12` [Compound 4a, N-((6-(Benzylamino)pyridin-3-yl)methyl)-N-methyl-7H-pyrrolo[2,3-d]pyrimidin-4-amine], the “Cellular activity in Ba/F3 CSF1R cells (in words)” value in data set [1] (Ba/F3 cells dependent on constitutively active CSF1R) is given as “relatively high cellular activity”. The results for the IC50 in data set [1], in data set [2] and in data set [7] were 1.16 ± 0.22 µM, 857 nM and 1.39 ± 0.4 µM, respectively. The solubility (kinetic) in data set [3] came out at 20.9 µM (≈ 7.2 µg/mL). The Kd in data set [4] is above 1000 nM. The “MLM in vitro intrinsic clearing” value in data set [5] stood at 277.3 µL/min/mg. This compound also yielded a Papp A→B in data set [6] of 34 ×10⁻⁶ cm/s. The Papp B→A in data set [6] is 24.7 ×10⁻⁶ cm/s. For the same compound, the efflux ratio in data set [6] came to 0.72.

In the case of `CN(Cc1ccc(NCc2ccccn2)nc1)c1ncnc2[nH]ccc12` [Compound 4b, N-Methyl-N-((6-((pyridin-2-ylmethyl)amino)pyridin-3-yl)methyl)-7H-pyrrolo[2,3-d]pyrimidin-4-amine], in data set [1], the IC50 is above 10 µM. For the same compound, the IC50 in data set [2] was above 1000 nM. The same compound registered a solubility (kinetic) in data set [3] of 441 µM (≈ 152 µg/mL). The Kd in data set [4] was above 1000 nM. In addition, the “MLM in vitro intrinsic clearing” value in data set [5] worked out at 101.9 µL/min/mg. Besides, in data set [6], the Papp A→B came out at 42 ×10⁻⁶ cm/s, the Papp B→A was determined as 28.8 ×10⁻⁶ cm/s and the efflux ratio is 0.69. Also, the IC50 in data set [7] is above 10 µM.

For the compound `CN(Cc1ccc(NCc2ccc(C(F)(F)F)nc2)nc1)c1ncnc2[nH]ccc12` [Compound 4c, N-Methyl-N-((6-(((6-(trifluoromethyl)pyridin-3-yl)methyl)amino)pyridin-3-yl)methyl)-7H-pyrrolo[2,3-d]pyrimidin-4-amine], the IC50 in data set [1] was found to be 9.96 ± 0.02 µM. Besides, the IC50 in data set [2] was above 1000 nM. The compound further gave a solubility (kinetic) in data set [3] of 20.9 µM (≈ 8.64 µg/mL). The Kd in data set [4] was above 1000 nM. In addition, the “MLM in vitro intrinsic clearing” value in data set [5] was 150.7 µL/min/mg. In data set [6], the Papp A→B is 18.3 ×10⁻⁶ cm/s, the Papp B→A came out at 10 ×10⁻⁶ cm/s and the efflux ratio came to 0.55. In data set [7], the IC50 was above 10 µM.

In the case of `Cc1cccc(CN(C)c2ncnc3[nH]cc(-c4ccc(NCc5cccnc5)nc4)c23)c1` [Compound 8, N-Methyl-N-(3-methylbenzyl)-5-(6-((pyridin-3-ylmethyl)amino)pyridin-3-yl)-7H-pyrrolo[2,3-d]pyrimidin-4-amine], the figures for the IC50 in data set [1], in data set [2] and in data set [7] were 8.46 ± 0.89 µM, above 1000 nM and above 10 µM, respectively. The compound also returned a kinetic solubility in data set [3] of 70.4 µM (≈ 30.7 µg/mL). In addition, the Kd in data set [4] is 397 nM. In addition, the “MLM in vitro intrinsic clearing” value in data set [5] came to 1540.3 µL/min/mg. In addition, the Papp A→B in data set [6] was 15.9 ×10⁻⁶ cm/s. In data set [6], this compound showed a Papp B→A of 4.4 ×10⁻⁶ cm/s. The efflux ratio in data set [6] was determined as 0.27.

For the compound `Cc1cccc(CN(C)c2ncnc3[nH]c(-c4ccc(NCc5cccc(C)c5C)nc4)cc23)c1` [Compound 12d, 6-(6-((2,3-Dimethylbenzyl)amino)pyridin-3-yl)-N-methyl-N-(3-methylbenzyl)-7H-pyrrolo[2,3-d]pyrimidin-4-amine], in data set [2], the IC50 is above 1000 nM. Further, in data set [4], the Kd was above 1000 nM.

Take `COc1ccc(CNc2ccc(-c3cc4c(N(C)Cc5cccc(C)c5)ncnc4[nH]3)cn2)cc1` [Compound 12e, 6-(6-((4-Methoxybenzyl)amino)pyridin-3-yl)-N-methyl-N-(3-methylbenzyl)-7H-pyrrolo[2,3-d]pyrimidin-4-amine]: the figures for the IC50 in data set [1], in data set [2] and in data set [7] were 6.24 µM, 10.5 nM and 9.25 µM, respectively. The equilibrium dissociation constant (Kd) in data set [4] was above 1000 nM.

As to `Cc1cccc(CN(C)c2ncnc3[nH]c(-c4ccc(NCc5ccccc5)nc4)cc23)c1` [Compound 14a, 6-(6-(Benzylamino)pyridin-3-yl)-N-methyl-N-(3-methylbenzyl)-7H-pyrrolo[2,3-d]pyrimidin-4-amine], the IC50 in data set [2] was found to be 6 nM. Further, the Kd in data set [4] is above 1000 nM.

Regarding `FC(F)(F)c1ccc(CNc2ccc(Cc3c[nH]c4ncc(Cl)cc34)cn2)cn1` [Pexidartinib, reference compound], the IC50 in data set [1] was determined as 0.064 ± 0.04 µM. Further, the solubility (kinetic) in data set [3] came to 20.5 µM (≈ 8.57 µg/mL). In data set [6], this compound registered a Papp A→B of 4.5 ×10⁻⁶ cm/s and a basolateral-to-apical permeability (Papp B→A) of 1.5 ×10⁻⁶ cm/s. The IC50 in data set [7] came out at 6.54 ± 0.61 µM.
